Measurements published in the supplement of paper PMC12494721.
Counter-ions that a name gives are not always drawn.

What was measured:
Conditions in all cases: incubation time: 27 h, anaerobic, 37 °C
[1] = test system: Escherichia coli IAI1; assay: fold change of Putrescine concentration vs plate DMSO controls (fold change (ratio)); higher = more amine produced
[2] = test system: Escherichia coli IAI1; assay: growth (OD595) fold change vs plate DMSO controls (fold change (ratio)); higher = more growth
[3] = test system: Escherichia coli IAI1; assay: fold change of Cadaverine concentration vs plate DMSO controls (fold change (ratio)); higher = more amine produced
[4] = test system: Clostridium sporogenes DSM 1664; assay: growth (OD595) fold change vs plate DMSO controls (fold change (ratio)); higher = more growth
[5] = test system: Clostridium sporogenes DSM 1664; assay: fold change of Tryptamine concentration vs plate DMSO controls (fold change (ratio)); higher = more amine produced
[6] = test system: Ruminococcus gnavus DSM 108212; assay: fold change of 2-Phenylethylamine concentration vs plate DMSO controls (fold change (ratio)); higher = more amine produced
[7] = test system: Ruminococcus gnavus DSM 108212; assay: growth (OD595) fold change vs plate DMSO controls (fold change (ratio)); higher = more growth
[8] = test system: Ruminococcus gnavus DSM 108212; assay: fold change of Tryptamine concentration vs plate DMSO controls (fold change (ratio)); higher = more amine produced
[9] = test system: Klebsiella aerogenes DSM 30053; assay: fold change of Histamine concentration vs plate DMSO controls (fold change (ratio)); higher = more amine produced
Procedure: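 Dose-response follow-up: bacteria (E. coli IAI1, K. aerogenes DSM 30053, C. sporogenes DSM 1664, R. gnavus DSM 108212) were grown anaerobically in mGAM at 37 °C for 27 h with compound at 0.6125-20 µM. Amines were measured in the whole culture by targeted LC-MS/MS. Metabolite fold change and OD595 fold change are relative to plate DMSO controls; n=2 biological replicates. OD fold changes are not clipped, so slightly negative values mean no growth.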

[10] = test system: Klebsiella aerogenes DSM 30053; assay: fold change of Putrescine concentration vs plate DMSO controls (fold change (ratio)); higher = more amine produced
[11] = test system: Klebsiella aerogenes DSM 30053; assay: growth (OD595) fold change vs plate DMSO controls (fold change (ratio)); higher = more growth
[12] = test system: Klebsiella aerogenes DSM 30053; assay: fold change of Cadaverine concentration vs plate DMSO controls (fold change (ratio)); higher = more amine produced

C=CC1=C(C(=O)O)N2C(=O)[C@@H](NC(=O)/C(=N\O)c3csc(N)n3)[C@H]2SC1 [Cefdinir]
Conditions	fold change of Cadaverine concentration, [3]	fold change of Putrescine concentration, [1]	growth, [2]
0.6125 µM	1.1	0.759	0.899
1.25 µM	1.18	0.836	0.905
2.5 µM	1.98	1.47	0.0538
5 µM	0.812	0.282	-0.042
10 µM	0.533	0.152	-0.0507
20 µM	1.17	0.342	-0.0475

C=CC1=C(C(=O)O)N2C(=O)[C@@H](NC(=O)/C(=N\OCC(=O)O)c3csc(N)n3)[C@H]2SC1 [Cefixime]
Conditions	fold change of Cadaverine concentration, [3]	fold change of Putrescine concentration, [1]	fold change of Tryptamine concentration, [5]	growth, [2]	growth, [4]
0.6125 µM	1.07	0.815	0.977	0.848	1.05
1.25 µM	1.07	0.897	0.994	0.903	1.02
2.5 µM	1.72	0.839	0.974	0.859	0.842
5 µM	2.01	2.82	0.937	0.193	0.82
10 µM	2.2	1.37	0.925	0.0344	0.675
20 µM	2.17	1.16	0.887	-0.00514	0.527

CCN1CCN(C(=O)N[C@@H](C(=O)N[C@@H]2C(=O)N3C(C(=O)O)=C(CSc4nnnn4C)CS[C@H]23)c2ccc(O)cc2)C(=O)C1=O [Cefoperazone dihydrate]
Conditions	fold change of 2-Phenylethylamine concentration, [6]	fold change of Cadaverine concentration, [3]	fold change of Putrescine concentration, [1]	fold change of Tryptamine concentration, [8]	growth, [2]	growth, [7]
0.6125 µM	0.866	1.07	0.765	1.01	0.9	1.55
1.25 µM	0.808	1.12	0.851	0.955	0.914	1.15
2.5 µM	0.387	1.82	3.2	0.568	0.514	0.937
5 µM	0.153	2.14	1.77	0.22	0.0751	0.627
10 µM	0.105	2.27	1.11	0.14	0.0151	0.478
20 µM	0.0986	2.17	1.04	0.124	-0.0235	0.345

CO/N=C(\C(=O)N[C@@H]1C(=O)N2C(C(=O)[O-])=C(C[n+]3ccn4ncccc43)CS[C@H]12)c1nsc(N)n1 [Cefozopran hydrochloride]
Conditions	fold change of 2-Phenylethylamine concentration, [6]	fold change of Cadaverine concentration, [3]	fold change of Putrescine concentration, [1]	fold change of Tryptamine concentration, [8]	growth, [2]	growth, [7]
0.6125 µM	0.623	0.986	0.772	0.714	0.818	1.24
1.25 µM	0.361	0.959	0.919	0.52	0.863	0.965
2.5 µM	0.162	0.929	0.717	0.275	1.06	1.03
5 µM	0.105	0.962	0.793	0.16	1.12	1.06
10 µM	0.101	1.38	1.12	0.148	1.15	1.24
20 µM	0.0948	2.16	2.17	0.135	0.238	0.529

CO/N=C(\C(=O)N[C@@H]1C(=O)N2C(C(=O)O)=C(COC(N)=O)CS[C@H]12)c1ccco1 [Cefuroxime sodium salt]
Conditions	fold change of Cadaverine concentration, [3]	fold change of Putrescine concentration, [1]	fold change of Tryptamine concentration, [5]	growth, [2]	growth, [4]
0.6125 µM	1.11	0.907	1.01	0.872	0.8
1.25 µM	1.13	0.853	1.01	0.929	0.69
2.5 µM	1.09	0.758	1.04	1.03	0.755
5 µM	2.02	1.11	0.764	0.923	0.214
10 µM	2.06	2.59	0.0406	0.171	-0.0277
20 µM	2.13	1.24	0.0242	0.0264	-0.0443

COc1c(N2CCNC(C)C2)c(F)cc2c(=O)c(C(=O)O)cn(C3CC3)c12 (stereo not given) [Gatifloxacin]
Conditions	fold change of 2-Phenylethylamine concentration, [6]	fold change of Cadaverine concentration, [12]	fold change of Histamine concentration, [9]	fold change of Putrescine concentration, [10]	fold change of Tryptamine concentration, [8]	growth, [7]	growth, [11]
0.6125 µM	1.35	0.983	1.35	1.03	1.31	0.932	0.993
1.25 µM	1.33	1.03	0.852	1.2	1.5	0.65	0.605
2.5 µM	1.67	1.02	0.158	1.26	2.2	0.553	0.302
5 µM	2.18	0.999	0.193	1.35	2.87	0.484	0.348
10 µM	1.22	1	0.284	1.4	1.85	0.3	0.373
20 µM	0.23	0.997	0.4	1.24	0.434	0.107	0.242

CC(=O)NC[C@H]1CN(c2ccc(N3CCOCC3)c(F)c2)C(=O)O1 [Linezolid]
Conditions	fold change of Tryptamine concentration, [5]	growth, [4]
0.6125 µM	0.966	1.14
1.25 µM	0.923	1.05
2.5 µM	0.894	1.06
5 µM	0.77	0.814
10 µM	0.51	0.563
20 µM	0.0345	-0.0339

COc1cccc(OC)c1C(=O)N[C@@H]1C(=O)N2[C@@H]1SC(C)(C)[C@@H]2C(=O)O [Methicillin sodium]
Conditions	fold change of Tryptamine concentration, [5]	growth, [4]
0.6125 µM	1.02	0.843
1.25 µM	1	0.888
2.5 µM	1.01	0.839
5 µM	0.915	0.95
10 µM	0.779	0.469
20 µM	0.417	0.469

Cc1ncc([N+](=O)[O-])n1CCO [Metronidazole]
Conditions	fold change of Tryptamine concentration, [5]	growth, [4]
0.6125 µM	0.744	1.05
1.25 µM	0.758	1.12
2.5 µM	0.55	1.08
5 µM	0.0225	-0.0178
10 µM	0.0206	-0.0224
20 µM	0.0183	-0.023

CO[C@@]12[C@H](COC(N)=O)C3=C(C(=O)C(C)=C(N)C3=O)N1C[C@@H]1N[C@@H]12 [Mitomycin C]
Conditions	fold change of Cadaverine concentration, [3]	fold change of Putrescine concentration, [1]	growth, [2]
0.6125 µM	1.42	0.929	0.872
1.25 µM	1.59	1.35	0.904
2.5 µM	1.98	1.27	0.925
5 µM	1.94	1.13	1.05
10 µM	1.25	0.82	0.764
20 µM	0.41	0.673	-0.0235

CC[C@@]1([C@@H]2O[C@@H]([C@H]3O[C@@](O)(CO)[C@H](C)C[C@@H]3C)C[C@@H]2C)CC[C@H]([C@]2(C)CC[C@]3(C[C@H](O)[C@@H](C)[C@@H]([C@@H](C)[C@@H](OC)[C@H](C)C(=O)O)O3)O2)O1 [Monensin sodium salt]
Conditions	fold change of Tryptamine concentration, [5]	growth, [4]
0.6125 µM	0.986	0.907
1.25 µM	0.919	0.829
2.5 µM	0.785	0.712
5 µM	0.555	0.829
10 µM	0.39	0.664
20 µM	0.267	0.516

CCn1cc(C(=O)O)c(=O)c2cc3c(cc21)OCO3 [Oxolinic acid]
Conditions	fold change of Tryptamine concentration, [5]	growth, [4]
0.6125 µM	0.975	1.04
1.25 µM	1.03	0.931
2.5 µM	1.13	1.05
5 µM	0.788	0.775
10 µM	0.446	0.806
20 µM	0.0475	-0.028

CN(C)[C@@H]1C(=O)C(C(N)=O)=C(O)[C@@]2(O)C(=O)C3=C(O)c4c(O)cccc4[C@@](C)(O)[C@H]3[C@H](O)[C@@H]12 [Oxytetracycline dihydrate]
Conditions	fold change of 2-Phenylethylamine concentration, [6]	fold change of Tryptamine concentration, [8]	growth, [7]
0.6125 µM	0.956	1.13	0.833
1.25 µM	1.13	1.31	0.83
2.5 µM	1.34	1.69	0.68
5 µM	2.06	2.71	0.594
10 µM	2.02	2.8	0.414
20 µM	2.08	2.82	0.356

CC(C)(c1cc(Br)c(O)c(Br)c1)c1cc(Br)c(O)c(Br)c1 [TBBPA]
Conditions	fold change of Tryptamine concentration, [5]	growth, [4]
0.6125 µM	1.18	1.09
1.25 µM	1.18	1.16
2.5 µM	1.18	1.25
5 µM	1.27	1.25
10 µM	0.379	0.452
20 µM	0.0168	-0.0298

CS(=O)(=O)c1ccc([C@@H](O)[C@@H](CO)NC(=O)C(Cl)Cl)cc1 [Thiamphenicol]
Conditions	fold change of 2-Phenylethylamine concentration, [6]	fold change of Tryptamine concentration, [8]	growth, [7]
0.6125 µM	1.16	1.04	0.84
1.25 µM	1.23	0.877	0.789
2.5 µM	0.61	0.535	0.797
5 µM	0.471	0.443	0.686
10 µM	0.3	0.342	0.57
20 µM	0.329	0.267	0.38

CO[C@H]1C[C@H](O[C@H]2[C@H](C)[C@@H](O[C@@H]3O[C@H](C)C[C@H](N(C)C)[C@H]3OC(C)=O)[C@@H](C)C[C@@]3(CO3)C(=O)[C@H](C)[C@@H](OC(C)=O)[C@@H](C)[C@@H](C)OC(=O)[C@@H]2C)O[C@@H](C)[C@@H]1OC(C)=O [Troleandomycin]
Conditions	fold change of Tryptamine concentration, [5]	growth, [4]
0.6125 µM	1.07	1.05
1.25 µM	1.17	1.01
2.5 µM	1.21	0.886
5 µM	1.21	0.87
10 µM	0.983	0.89
20 µM	0.344	0.236
